Reference: patent US8354265B2, “Chemicals promoting the growth of N-acylhomoserine lactone-degrading bacteria” (Centre National de la Recherche Scientifique, priority 2007, dated 2013)

Assays:
[1] = tested on: NAHL-degrading rhizobacteria; assay: Diversity of NAHL-degrading rhizobacteria after 6CL and GCL treatments, rrs sequencing (Table 2); assay type: in vivo, Solanum tuberosum
Procedure: (§1) The non sterile batches (40×60×8 cm) contained 13 L of the nutritive solution Hydrobloom (Cellmax, UK) with Nitrogen at 0.80 g/L, Phosphore at 0.56 g/L and Potassium at 1.48 g/L as major components. The solution was diluted from a concentrated stock solution (×250) with non sterile water from the public water system. One hundred plants of Solanum tuberosum var. Allians, which were recovered from cultures performed under sterile conditions, were placed into holes (3 cm space to each other) of batch covers. Planted batches were placed in the greenhouse (Comité Nord Plants de Pomme de Terre, Bretteville-du-Grand-Caux) under natural light at 10-15° C. (night) and 25-30° C. (day). […] An untreated batch was used as a control. One gram of roots (fresh weight) was resuspended in 10 mL of sterile MgSO4 10 mM, diluted and spread on TSA and King B plates to isolate total cultivable bacteria and fluorescent Pseudomonas, respectively. Three samples were analyzed from each batch at each time D0, D14 and D28; from each sample, thirty isolates from TSA plates and thirty fluorescent isolates from King B plates were individually tested from production and inactivation of NAHL signal.
The 5′-end of the rrs gene was amplified with primers pA (5′-[…]) (SEQ ID NO:1) and 518r (5′-[…]) (SEQ ID NO:2), and sequenced with pA primer by GenomeExpress (Meylan, France). At least 400 bp were submitted to the NCBI database. Although some sequence comparisons authorized identification of isolates at the species level, only the genus level was retained in this study for homogeneity.
The isolates were identified by rrs-sequencing (Table 2). At D0, most of the NAHL-degrading isolates were identified as Delftia. However, at D14 and D28, the Agrobacterium isolates dominated in untreated batches, while they were not detected in the treated batches. In those, the more frequently counted bacteria were Delftia and Rhodococcus.

[2] = tested on: NAHL-degrading and NAHL-producing bacteria of potato rhizosphere; assay: Two independent analyses of 6CL and GCL treatments on planted batches (FIG. 7); assay type: in vivo, Solanum tuberosum var. Allians
Source text: FIG. 7: Percentage of NAHL-degrading and NAHL-producing strains in potato rhizosphere. […] An untreated batch was used as a control in the two independent sets of experiments. The mean of three replicates is shown. Statistically different values (Student t test; 0.05) are noted by different letters.
as §1
(§2) Bacterial isolates grown in 96-microwell plates were individually tested from production of NAHL with the A. tumefaciens biosensor NT1 (pZNLR4) and the inactivation of the C6-HSL signal, as described previously (d'Angelo-Picard et al. 2004).
An untreated batch was used as a control.

[3] = tested on: bacterial consortia; assay: Inactivation of C6-HSL and OC8-HSL by mannitol, 6CL, GCL and HTN consortia; assay type: cell-based
Source text: The Mannitol-, 6CL-, GCL-, and HTN-consortia were compared for their capacity to inactivated OC8-HSL, the major NAHL produced by the plant pathogen Erwinia carotovora subsp. atroseptica 6276, as well as for their biocontrol activity against this pathogen in potato maceration assay.

[4] = tested on: bacterial populations of potato roots; assay: DGGE analysis of bacterial populations associated with roots; assay type: in vivo, Solanum tuberosum; conditions: D14 and D28; 0.1 and 0.4 mL/L, most visible at 0.4 mL/L
Procedure: FIG. 11: DGGE analyses. […] Numbered bands on pictures were analyzed by sequencing. For each sequence or group of sequences, one of the closest rrs sequences was indicated. It is identified by its Genbank number, the similarity indice (SI) (calculated at Ribosomal Database Project http://rdp.cme.msu.edu/), and the name and taxonomical position of the bacteria of origin (Bact, Bacteria; BC, Bacteroidetes/Chlorobi group; Firm, Firmicutes; α,α-proteobacteria; β,β-proteobacteria; and γ,γ-proteobacteria).
The structure of the bacterial population associated with roots system (ca. 10 g) was analyzed by DGGE of PCR-amplified rrs region (position 341-534 of E. coli sequence). Two samples were analyzed from each batch. The DGGE analysis was performed by Microbial Insights (Rockford, Tenn., USA), as previously described (d'Angelo-Picard et al., 2004). Band positions in each line were converted to 0 (absence) and 1 (presence) value and assembled in a matrix. Profile similarity was calculated with the Dice algorithm using DistAFLP software (http://pbil.univ-lyon1.fr/ADE-4/microb). Sequence identification of selected bands was performed using the sequence match facility of the Ribosomal Database Project (http://rdp.cme.msu.edu/), according to NCBI taxonomy (http://www.ncbi.nlm.nih.gov/Taxonomy/). […]

[5] = tested on: NAHL-degrading rhizobacteria; assay: Diversity of NAHL-degrading rhizobacteria after 6CL and GCL treatments, rrs sequencing (Table 2); assay type: in vivo, Solanum tuberosum; conditions: isolates of treated batches
[6] = tested on: bacterial consortia originating from rhizospheric soil; assay: C6-HSL inactivation by bacterial consortia enriched from rhizospheric soil; assay type: cell-based
[7] = tested on: young plants; assay: Sensitivity of young plants to the chemicals; conditions: high concentrations (1 mL/L); data not shown
[8] = tested on: bacterial consortia from unplanted soil; assay: C6-HSL inactivation by bacterial consortia enriched from unplanted soil on the compound as sole carbon source; assay type: cell-based; conditions: soil and rhizospheric samples; among 25 assayed molecules
[9] = tested on: NAHL-degrading bacteria in the nutritive solution; assay: Ratio of NAHL-degrading bacteria in unplanted batches of nutritive solution; assay type: cell-based; conditions: for percentage of NAHL-degrading bacteria in the nutritive solution: without plants
Procedure: as §1, §2
Allians was evaluated. The plants were cultivated in vitro under sterile conditions, then placed into batches in a greenhouse at Bretteville-du-Grand-Caux (France) in a non-sterile environment. Especially, a non-sterile nutritive solution was used and served as a source of naturally occurring bacteria. […] The ratio of NAHL-degrading bacteria in the nutritive solution was evaluated before the treatment and 14-day later. This percentage increased from 10±2 to 30±2 in the case of the 6CL-treated batch and from 10±2 to 70±2 in the GCL-treated batch. From the 6CL- and GCL-treated batches, 10 NAHL-degrading bacteria were identified by their rrs sequence: 9 belonged to the Delftia genus, the other one to the Rhodococcus genus.

[10] = 6CL- and GCL-treated batches together, rrs sequence

CCC1CCC(=O)O1 (centres unmarked) [GCL, gamma-caprolactone]
rrs-identified NAHL-degraders: Delftia ([1]; D14 and D28, 0.1 mL/L): 16
rrs-identified NAHL-degraders: Others ([1]; D14 and D28, 0.1 mL/L): 2
rrs-identified NAHL-degraders: Pseudomonas ([1]; D14 and D28, 0.1 mL/L): 1
rrs-identified NAHL-degraders: Rhizobium ([1]; D14 and D28, 0.1 mL/L): 1
rrs-identified NAHL-degraders: Rhodococcus ([1]; D14 and D28, 0.1 mL/L): 60
rrs-identified NAHL-degraders: Delftia ([1]; D14 and D28, 0.4 mL/L): 9
rrs-identified NAHL-degraders: Pseudomonas ([1]; D14 and D28, 0.4 mL/L): 1
rrs-identified NAHL-degraders: Rhodococcus ([1]; D14 and D28, 0.4 mL/L): 96
percentage of A. tumefaciens isolates among the NAHL-degrading rhizobacteria ([1]; after GCL-treatments): decrease
cell density (CFU/g of root) ([2]; 14 days after application at 0.4 mL/L, two experiments): consistently increased
level of NAHL-degrading bacteria among fluorescent Pseudomonads ([2]; after GCL-treatments): no modification
percentage of NAHL-degrading bacteria among total cultivable bacteria ([2]; applied to hydroponic plant cultures (FIG. 7)): significant increase
speed of C6-HSL signal inactivation versus Mannitol consortia [3]: inactivated more rapidly
speed of OC8-HSL signal inactivation versus Mannitol consortia [3]: inactivated more rapidly
change of bacterial populations by DGGE [4]: drastic remodelling of bacterial populations
growth of Delftia and Rhodococcus isolates on the compound as a sole carbon source [5]: grew on GCL as a sole carbon source
activity of consortia towards C6-HSL (ranking) [6]: the most active
sensitivity of young plants [7]: sensitive
growth stimulation of NAHL-degrading bacteria after enrichment procedures [8]: stimulated the growth of NAHL-degrading bacteria
NAHL-degrading bacteria belonging to the Delftia genus (of 10 identified) [9, 10]: 9
NAHL-degrading bacteria belonging to the Rhodococcus genus (of 10 identified) [9, 10]: one
percentage of NAHL-degrading bacteria in the nutritive solution ([9]; 14-day after treatment at 1 mL/L): 70±2%
percentage of NAHL-degrading bacteria in the nutritive solution ([9]; before the treatment): 10±2%
